Assay results taken from patent US20200061062A1, “INHIBITORS OF HUMAN PHOSPHATIDYLINOSITOL 3-KINASE DELTA” (ICOS Corporation, priority 2000, published 2020).
Read-outs that look alike come from different tables or passages of the source.

How the values were obtained:
PI3Kα [1] = target: T1, PI3Kα (Homo sapiens, UniProt P42336); experiment: Biochemical assay of PI3K potency and selectivity using 20 μM ATP, Alpha; details: for Alpha/Delta Ratio: ratio of IC50 values, > = hypothetical ratio with 100 μM substituted for the missing IC50; for remaining activity at 100 µM: read-out: percent activity remaining at 100 μM, 20 μM ATP, 100 μM compound did not inhibit by at least 50%
T1 construct: His tag (pFastbac HTb vector) (N); FLAG; made in house; host or cells: Sf21 insect cells (baculovirus)
In short: (§1)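 Lipid-kinase radiometric assay with γ-[32P]ATP (20 μM ATP) on PIP2/PS liposomes in 20 mM HEPES pH 7.4; the 3× substrate mix held […] and 6 μM liposomes.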

PI3Kβ [2] = target: T2, PI3Kβ (Homo sapiens, UniProt P42338); experiment: Biochemical assay using 200 μM ATP, Beta
T2 construct: His tag (pFastbac HTa vector) (N); FLAG (N); made in house; host or cells: Sf21 insect cells (baculovirus)
Description: (§2) PI3Kδ catalyzes a phosphotransfer from γ-[^32P]ATP to PIP2/PS liposomes at the D3′ position of the PIP2 lipid inositol ring. This reaction is MgCl2 dependent and is quenched in high molarity potassium phosphate buffer pH 8.0 containing 30 mM EDTA. […] The reaction products (and all unlabelled products) are transferred to a 96-well, prewetted PVDF filter plate, filtered, and washed in high molarity potassium phosphate. Scintillant is added to the dried wells and the incorporated radioactivity is quantitated.
(§3) This dilution established a final concentration of 200 μM ATP in the reaction volume. The reaction was stopped with 150 μL quench buffer (1.0 M potassium phosphate pH 8.0, 30 mM EDTA). A portion of the quenched solution (180 μL) was then transferred to a PVDF filter plate (Millipore # MAIP NOB prewetted with sequential 200 μL washes of 100% methanol, water, and finally 1.0 M potassium phosphate pH 8.0 wash buffer).
(§4) The PVDF filter plate was aspirated under moderate vacuum (2-5 mm Hg), washed with 5×200 μL of wash buffer, and then dried by aspiration. The filter was subsequently blotted, allowed to air dry completely, and inserted into a Wallac counting cassette with 50 μL of Ecoscint scintillation cocktail added per well.
(§5) Subsequent selectivity assays were done similarly using the same 3× substrate stocks except they contained 0.05 mCi/mL γ[^32P]ATP and 3 mM PIP2. Subsequent selectivity assays also used the same 3× enzyme stocks, except they now contained 3 nM of any given PI3K isoform.
(§6) For all selectivity assays, the test compounds were weighed out and dissolved into 10-50 mM stocks in 100% DMSO (depending on their respective solubilities) and stored at −20° C. […] From these dilutions, 20 μL was added into the assay wells alongside water blanks used for the enzyme (positive) control and the no enzyme (background) control.
(§7) This selectivity protocol is identical to that described above, except the 3× stock ATP concentration was 600 μM.

PI3Kβ [3] = target: T2, PI3Kβ; experiment: Biochemical assay of PI3K potency and selectivity using 20 μM ATP, Beta; details: for Beta/Delta Ratio / remaining activity at 100 µM: 20 μM ATP; for Beta/Delta Ratio: ratio of IC50 values, > = hypothetical ratio with 100 μM substituted for the missing IC50; for remaining activity at 100 µM: read-out: Beta: percent activity remaining at 100 μM, 100 μM compound did not inhibit by at least 50%
In short: as §1

PI3Kδ [4] = target: T3, PI3Kδ (Homo sapiens, UniProt O00329, S253N); experiment: Biochemical assay using 200 μM ATP, Delta;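 note: radiometric filter-binding assay: PI3Kδ transfers ³²P from γ-[³²P]ATP onto PIP2/PS liposomes, counted by scintillation, enzyme-only wells as positive control, no-enzyme wells as background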
Description: as §2, §3, §4, §5, §6, §7

[5] = system: Murine splenocytes (Balb/c); experiment: B cell proliferation in response to cell surface IgM stimulation; type: cell-based; details: Mus musculus, Splenocyte; for EC50: stimulated B cell proliferation, read-out: Mouse BCR Stim (EC50)
In short: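 Balb/c splenocytes (2×10^5/well, 10% FBS/RPMI) preincubated 30-60 min with inhibitor, then stimulated with goat F(ab′)2 anti-mouse IgM μ-chain at 25 μg/mL final. Cultured 3 days at 37° C., [^3H]-thymidine pulsed for final 4 h; incorporation counted as CPM. Values are EC50 (μM).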

PI3Kα [6] = target: T1, PI3Kα; experiment: Biochemical assay using 200 μM ATP, Alpha
human neutrophils = experiment: fMLP-induced human neutrophil migration; type: cell-based
Description: Neutrophils have the intrinsic capacity to migrate through tissues, and are one of the first cell types to arrive at the sites of inflammation or tissue injury. The effect of D-000 on neutrophil migration towards a concentration gradient of fMLP was measured. The day before the migration assays were performed, 6-well plates were coated with recombinant ICAM-1/Fc fusion protein (Van der Vieren et al., Immunity, 3:683-690 (1995)) (25 μg/mL in bicarbonate buffer, pH 9.3) and left overnight at 4° C. After washing, 1% agarose solution, in RPMI-1640 with 0.5% bovine serum albumin (BSA), was added to wells with or without an inhibitor, and plates were placed into a refrigerator before punching holes in the gelled agarose to create plaques (1 central hole surrounded by 6 peripheral ones per well).
Human neutrophils were obtained as described above, and resuspended in RPMI medium supplemented with 0.5% BSA at 5×10^6 cells/mL. After combining equal volumes of neutrophil suspension and medium (either with DMSO or a serial dilution of the test compound in DMSO), neutrophils were aliquoted into the peripheral holes, while the central hole received fMLP (5 μM). Plates were incubated at 37° C. in the presence of 5% CO2 for 4 hr, followed by termination of migration by the addition of 1% glutaraldehyde solution in D-PBS. After removing the agarose layer, wells were washed with distilled water and dried.
Analysis of neutrophil migration was conducted on a Nikon DIAPHOT® inverted microscope (1× objective) video workstation using the NIH 1.61 program. Using Microsoft Excel and Table Curve 4 (SSPS Inc., Chicago Ill.) programs, a migration index was obtained for each of the studied conditions. Migration index was defined as the area under a curve representing number of migrated neutrophils versus the net distance of migration per cell.
Using the methods described in Examples 3-5, above, compounds of the invention were tested for inhibitory activity and potency in assays of stimulated B and T cell proliferation, neutrophil (PMN) migration, and neutrophil (PMN) elastase release. In Table 4, the values shown are effective concentrations of the compound (EC50; μM). Where no value is given, no assay was performed.

T cell proliferation = experiment: Stimulated T cell proliferation (Mouse TCE Stim, Table 4); type: cell-based; details: stimulated T cell proliferation, read-out: Mouse TCE Stim (EC50)
PI3Kγ [7] = target: T4, PI3Kγ (Homo sapiens, UniProt P48736); experiment: Biochemical assay using 200 μM ATP, Gamma
T4 construct: His tag (pFastbac HTb vector) (N); FLAG (N); made in house; host or cells: Sf21 insect cells (baculovirus)

PI3Kδ [8] = target: T3, PI3Kδ; experiment: Biochemical assay of PI3K potency and selectivity using 20 μM ATP, Delta; design: His tag (pFastbac HTb vector) (N); FLAG; made in house; host or cells: Sf21 insect cells (baculovirus)
In short: as §1

PI3Kγ [9] = target: T4, PI3Kγ; experiment: Biochemical assay of PI3K potency and selectivity using 20 μM ATP, Gamma; details: for Gamma/Delta Ratio: ratio of IC50 values
[10] = neutrophil (PMN) migration, read-out: Human PMN Migration (EC50)
[11] = 20 μM ATP, read-out: Delta IC50

T4 sequence (P48736 whole entry): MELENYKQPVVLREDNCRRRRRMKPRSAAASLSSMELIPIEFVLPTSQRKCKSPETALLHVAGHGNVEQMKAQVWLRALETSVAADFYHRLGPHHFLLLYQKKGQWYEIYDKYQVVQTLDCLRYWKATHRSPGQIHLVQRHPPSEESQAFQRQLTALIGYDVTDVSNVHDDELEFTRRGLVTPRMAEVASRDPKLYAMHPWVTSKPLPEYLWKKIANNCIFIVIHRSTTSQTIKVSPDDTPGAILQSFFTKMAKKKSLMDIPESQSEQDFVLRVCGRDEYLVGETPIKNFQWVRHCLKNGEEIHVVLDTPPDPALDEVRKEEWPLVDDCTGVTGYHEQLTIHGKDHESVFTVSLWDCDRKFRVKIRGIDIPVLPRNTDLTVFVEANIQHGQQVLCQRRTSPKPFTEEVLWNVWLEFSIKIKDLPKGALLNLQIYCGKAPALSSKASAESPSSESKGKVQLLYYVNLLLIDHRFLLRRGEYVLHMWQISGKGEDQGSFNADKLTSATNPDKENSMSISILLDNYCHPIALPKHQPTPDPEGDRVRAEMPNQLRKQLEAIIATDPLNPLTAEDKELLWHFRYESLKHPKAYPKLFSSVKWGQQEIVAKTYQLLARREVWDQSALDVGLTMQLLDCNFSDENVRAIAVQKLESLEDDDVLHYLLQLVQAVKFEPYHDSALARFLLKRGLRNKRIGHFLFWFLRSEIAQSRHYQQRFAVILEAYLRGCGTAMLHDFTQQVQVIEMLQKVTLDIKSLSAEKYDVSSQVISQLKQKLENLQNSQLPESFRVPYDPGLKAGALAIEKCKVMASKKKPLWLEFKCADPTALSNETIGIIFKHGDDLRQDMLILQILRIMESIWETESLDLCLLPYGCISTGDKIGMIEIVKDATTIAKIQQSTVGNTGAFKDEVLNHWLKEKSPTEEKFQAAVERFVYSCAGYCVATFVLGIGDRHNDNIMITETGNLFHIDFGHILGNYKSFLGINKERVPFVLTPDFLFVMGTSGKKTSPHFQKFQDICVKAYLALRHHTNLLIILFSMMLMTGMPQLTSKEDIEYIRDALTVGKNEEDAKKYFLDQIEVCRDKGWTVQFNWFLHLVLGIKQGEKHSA
T3 sequence (O00329 whole entry S253N): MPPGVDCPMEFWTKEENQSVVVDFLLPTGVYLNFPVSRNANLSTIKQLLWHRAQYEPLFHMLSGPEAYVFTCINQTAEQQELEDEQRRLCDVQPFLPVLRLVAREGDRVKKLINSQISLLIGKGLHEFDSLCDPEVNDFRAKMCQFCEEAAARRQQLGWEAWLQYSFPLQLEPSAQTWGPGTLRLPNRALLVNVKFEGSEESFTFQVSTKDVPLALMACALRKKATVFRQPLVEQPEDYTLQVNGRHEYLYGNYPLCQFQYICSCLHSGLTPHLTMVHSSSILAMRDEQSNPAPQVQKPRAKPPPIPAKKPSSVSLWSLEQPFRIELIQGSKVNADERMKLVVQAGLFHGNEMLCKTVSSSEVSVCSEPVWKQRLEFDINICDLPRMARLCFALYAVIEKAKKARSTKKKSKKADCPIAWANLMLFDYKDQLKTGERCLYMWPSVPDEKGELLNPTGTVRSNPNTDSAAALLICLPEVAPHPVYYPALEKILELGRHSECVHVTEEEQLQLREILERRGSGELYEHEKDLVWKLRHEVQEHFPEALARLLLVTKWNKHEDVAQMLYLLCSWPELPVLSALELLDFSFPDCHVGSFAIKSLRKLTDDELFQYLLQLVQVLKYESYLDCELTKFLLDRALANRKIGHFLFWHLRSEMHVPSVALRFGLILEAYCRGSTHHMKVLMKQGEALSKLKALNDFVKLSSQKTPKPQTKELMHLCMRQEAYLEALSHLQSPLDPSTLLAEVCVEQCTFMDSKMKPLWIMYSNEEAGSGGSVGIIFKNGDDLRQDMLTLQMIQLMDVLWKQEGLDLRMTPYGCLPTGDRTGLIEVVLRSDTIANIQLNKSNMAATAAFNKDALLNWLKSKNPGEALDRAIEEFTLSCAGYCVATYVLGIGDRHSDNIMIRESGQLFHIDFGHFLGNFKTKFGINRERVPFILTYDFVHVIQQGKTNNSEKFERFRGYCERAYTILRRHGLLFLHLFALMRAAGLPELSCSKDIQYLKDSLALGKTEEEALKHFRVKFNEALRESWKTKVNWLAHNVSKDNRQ
T3 sequence (P27986 whole entry partner): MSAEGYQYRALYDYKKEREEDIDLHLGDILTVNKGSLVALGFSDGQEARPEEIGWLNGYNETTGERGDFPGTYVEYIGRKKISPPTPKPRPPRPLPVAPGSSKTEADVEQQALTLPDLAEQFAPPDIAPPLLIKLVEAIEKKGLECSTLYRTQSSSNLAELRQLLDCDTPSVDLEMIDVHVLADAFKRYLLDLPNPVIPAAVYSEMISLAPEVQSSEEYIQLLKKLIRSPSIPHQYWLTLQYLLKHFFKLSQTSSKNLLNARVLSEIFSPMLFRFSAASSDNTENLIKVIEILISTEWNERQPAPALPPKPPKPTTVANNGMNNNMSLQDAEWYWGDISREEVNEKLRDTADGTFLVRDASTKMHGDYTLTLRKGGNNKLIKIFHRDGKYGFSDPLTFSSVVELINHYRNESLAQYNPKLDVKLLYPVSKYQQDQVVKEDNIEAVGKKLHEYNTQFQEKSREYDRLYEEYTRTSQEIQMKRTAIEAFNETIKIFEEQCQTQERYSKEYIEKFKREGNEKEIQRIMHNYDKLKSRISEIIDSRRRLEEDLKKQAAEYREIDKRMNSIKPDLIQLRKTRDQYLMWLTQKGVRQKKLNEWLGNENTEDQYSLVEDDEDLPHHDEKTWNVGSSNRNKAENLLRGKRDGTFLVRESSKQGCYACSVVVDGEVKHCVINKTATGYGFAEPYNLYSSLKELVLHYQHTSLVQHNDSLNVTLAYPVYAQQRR
T2 sequence (P42338 whole entry): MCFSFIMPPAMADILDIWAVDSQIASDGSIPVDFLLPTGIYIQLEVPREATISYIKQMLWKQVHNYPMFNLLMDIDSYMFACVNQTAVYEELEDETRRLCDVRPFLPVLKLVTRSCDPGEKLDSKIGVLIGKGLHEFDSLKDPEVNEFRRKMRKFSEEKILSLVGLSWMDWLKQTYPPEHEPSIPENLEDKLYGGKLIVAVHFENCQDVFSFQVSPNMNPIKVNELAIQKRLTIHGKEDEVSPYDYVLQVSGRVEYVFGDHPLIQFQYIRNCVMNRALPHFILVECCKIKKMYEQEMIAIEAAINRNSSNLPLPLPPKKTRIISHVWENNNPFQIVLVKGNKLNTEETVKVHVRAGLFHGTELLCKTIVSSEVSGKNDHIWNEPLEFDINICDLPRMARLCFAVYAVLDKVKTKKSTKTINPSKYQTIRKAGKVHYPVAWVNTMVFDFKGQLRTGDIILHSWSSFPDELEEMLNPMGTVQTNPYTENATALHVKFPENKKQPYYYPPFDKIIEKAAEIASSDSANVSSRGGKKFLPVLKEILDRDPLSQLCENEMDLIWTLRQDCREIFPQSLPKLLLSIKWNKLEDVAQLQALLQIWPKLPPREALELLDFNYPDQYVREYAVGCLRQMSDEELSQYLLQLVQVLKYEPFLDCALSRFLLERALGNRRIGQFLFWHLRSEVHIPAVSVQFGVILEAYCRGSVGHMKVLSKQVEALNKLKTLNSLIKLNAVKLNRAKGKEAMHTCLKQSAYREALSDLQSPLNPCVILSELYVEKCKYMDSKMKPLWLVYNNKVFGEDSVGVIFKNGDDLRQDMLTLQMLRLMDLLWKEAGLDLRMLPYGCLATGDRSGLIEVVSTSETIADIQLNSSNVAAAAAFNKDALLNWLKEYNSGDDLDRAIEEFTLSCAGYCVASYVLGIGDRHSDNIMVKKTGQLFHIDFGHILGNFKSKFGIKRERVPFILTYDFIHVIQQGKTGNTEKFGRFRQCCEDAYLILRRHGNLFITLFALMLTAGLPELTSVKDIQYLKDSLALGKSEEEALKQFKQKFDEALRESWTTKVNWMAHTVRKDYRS
T2 sequence (P27986 whole entry partner): as the sequence (P27986 whole entry partner) above
T1 sequence (P42336 whole entry): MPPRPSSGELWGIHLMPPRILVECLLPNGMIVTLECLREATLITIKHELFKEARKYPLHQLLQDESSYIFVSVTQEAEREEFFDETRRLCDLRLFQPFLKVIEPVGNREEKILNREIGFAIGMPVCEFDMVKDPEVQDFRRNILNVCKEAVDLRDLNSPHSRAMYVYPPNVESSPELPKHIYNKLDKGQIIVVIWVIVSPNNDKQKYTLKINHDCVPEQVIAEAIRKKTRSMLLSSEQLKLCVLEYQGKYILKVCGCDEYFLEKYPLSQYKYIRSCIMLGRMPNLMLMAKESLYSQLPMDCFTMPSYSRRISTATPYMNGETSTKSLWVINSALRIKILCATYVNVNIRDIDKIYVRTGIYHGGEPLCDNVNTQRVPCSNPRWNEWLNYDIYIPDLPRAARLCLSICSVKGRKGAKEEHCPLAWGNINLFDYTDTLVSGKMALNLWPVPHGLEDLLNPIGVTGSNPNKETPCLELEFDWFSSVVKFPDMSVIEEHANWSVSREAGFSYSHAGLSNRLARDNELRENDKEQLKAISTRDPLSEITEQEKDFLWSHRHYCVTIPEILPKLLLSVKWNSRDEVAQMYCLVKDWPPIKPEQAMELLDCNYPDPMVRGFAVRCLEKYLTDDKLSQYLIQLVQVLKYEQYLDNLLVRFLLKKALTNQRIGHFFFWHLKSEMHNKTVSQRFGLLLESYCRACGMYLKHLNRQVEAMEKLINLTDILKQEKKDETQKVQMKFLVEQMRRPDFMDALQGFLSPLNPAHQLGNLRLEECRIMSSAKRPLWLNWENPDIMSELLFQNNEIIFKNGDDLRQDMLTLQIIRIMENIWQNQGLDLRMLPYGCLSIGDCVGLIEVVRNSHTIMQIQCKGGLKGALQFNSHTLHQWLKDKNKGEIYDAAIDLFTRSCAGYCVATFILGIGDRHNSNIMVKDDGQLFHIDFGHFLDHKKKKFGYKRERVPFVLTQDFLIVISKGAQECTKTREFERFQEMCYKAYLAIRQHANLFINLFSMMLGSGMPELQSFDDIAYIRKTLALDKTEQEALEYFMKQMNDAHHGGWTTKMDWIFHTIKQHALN
T1 sequence (P27986 whole entry partner): as the sequence (P27986 whole entry partner) above

SMILES	Alpha/Delta Ratio (PI3Kα [1]; 20 μM ATP)	remaining activity at 100 µM (PI3Kα [1]) [%]	Beta/Delta Ratio (PI3Kβ [2])	Beta/Delta Ratio (PI3Kβ [3])	remaining activity at 100 µM (PI3Kβ [3]) [%]	IC50 (PI3Kδ [4]) [µM]	EC50 [5] [µM]	Alpha/Delta Ratio (PI3Kα [6])	EC50 (human neutrophils; [10]) [µM]	EC50 (T cell proliferation) [µM]	Gamma/Delta Ratio (PI3Kγ [7])	IC50 (PI3Kγ [7]) [µM]	IC50 (PI3Kδ [8]; [11]) [µM]	IC50 (PI3Kγ [9]) [µM]	Gamma/Delta Ratio (PI3Kγ [9])	other results
O=c1c2ccccc2nc(CSc2ncnc3[nH]cnc23)n1-c1ccccc1Cl [Compound D-000, 3-(2-chlorophenyl)-2-(9H-purin-6-ylsulfanylmethyl)-3H-quinazolin-4-one]	>302	86	84	>302	74	2 ± 1	0.9 ± 0.4	91	1 to 5	5.5 ± 4	18	35 ± 35	0.33	7.7	23	IC50 (PI3Kα [1]; Example 2 assay conditions, limit of 100 μM compound, read-out: IC50, α isoform of PI3K (FIG. 1)): > 100 µM; IC50 (PI3Kβ [3]; Example 2 assay conditions, limit of 100 μM compound, read-out: IC50, β isoform of PI3K (FIG. 1)): > 100 µM; IC50 ([5]; anti-IgM 25 μg/mL, 3 days, [3H]-thymidine, FIG. 8, read-out: Concentration reducing anti-IgM-stimulated B cell proliferation to its half-maximal value): ~1 µM; EC50 (human neutrophils; Neutrophil, fMLP (5 μM) gradient, 4 hr, FIG. 5, read-out: EC50 for inhibition of neutrophil migration): ~1 µM; IC50 (PI3Kδ [8]; Example 2 assay conditions, read-out: IC50, δ isoform of PI3K (FIG. 1)): ~0.3 µM
O=c1c2c(F)cccc2nc(CSc2ncnc3[nH]cnc23)n1-c1ccccc1Cl [Compound D-015, 3-(2-Chlorophenyl)-5-fluoro-2-(9H-purin-6-ylsulfanylmethyl)-3H-quinazolin-4-one]	>480	65	154	>480	69	1.1 ± 0.5	1.2 ± 0.2	180	2	1.8	160	–	0.21	3.6	17	–
O=c1c2c(Cl)cccc2nc(CSc2ncnc3[nH]cnc23)n1-c1ccccc1Cl [Compound D-025, 5-Chloro-3-(2-chlorophenyl)-2-(9H-purin-6-ylsulfanylmethyl)-3H-quinazolin-4-one]	>909	73	–	>909	61	0.32 ± 0.3	0.3 ± 0.1	556	0.3 ± 0.3	4.4 ± 0.6	24	7.8 ± 3	0.11	1.5	14	–
O=c1c2ccccc2nc(CSc2ncnc3[nH]ncc23)n1-c1ccccc1Cl [Compound D-999, 3-(2-Chlorophenyl)-2-(1H-pyrazolo[3,4-d]pyrimidin-4-ylsulfanylmethyl)-3H-quinazolin-4-one, reference compound]	2.2	–	2	2.1	71	75	3.1 ± 0.7	2	1	5.9	1	90	47	60	1.3	IC50 (PI3Kα [1]; 20 μM ATP, read-out: Alpha IC50): 105 µM
